{"source": "patent US20180042925A1", "about": "“METHODS FOR TREATING CANCER” (CHILDREN'S HOSPITAL MEDICAL CENTER, priority 2015, published 2018)", "key": {"G68 cells": {"tested_on": "G68 cells", "assay": "CellTiter Glo cell viability assay, pharmacological SCD1 inhibition", "format": "cell-based, human", "details": "vs vehicle (DMSO), FIG. 2C"}, "G62 cells": {"tested_on": "G62 cells", "assay": "CellTiter Glo cell viability assay, pharmacological SCD1 inhibition", "format": "cell-based, human", "details": "vs vehicle (DMSO), FIG. 2B", "method": "For the pharmacological inhibition studies of FIGS. 2B and 2C, an equal number of G62 cells was seeded in 96 wells in the presence of SCD1 inhibitor or vehicle (DMSO) in quadruplicate. Viable cells were quantified at indicated times using CellTiter Glo cell viability assay kit (Promega)."}}}
{"smiles": "Cc1nnc(-c2ccc(N3CCC(Oc4cc(F)ccc4Cl)CC3)nn2)o1", "note": "[CAY10566, 3-[4-(2-chloro-5-fluorophenoxy)-1-piperidinyl]-6-(5-methyl-1,3,4-oxadiazol-2-yl)-pyridazine]", "values": [{"measurement": "cell viability in the presence or absence of CAY10566", "setting": "G68 cells", "value": "induction of G68 cell death and growth inhibition"}, {"measurement": "cell viability in the presence or absence of CAY10566", "setting": "G62 cells", "value": "induction of G62 cell death and growth inhibition"}]}
